Assay results from PMC6511942, “Exploitation of Antibiotic Resistance as a Novel Drug Target: Development of a β-Lactamase-Activated Antibacterial Prodrug” (Journal of Medicinal Chemistry, 2019).

Key:
DH5α cells –βla = test: Whole-cell NMR β-lactamase hydrolysis assay, DH5α without β-lactamase; type: cell-based, E. coli; conditions: DH5α – CTX-M-1, 100 μM, 60 min
DH5α expressing CTX-M-1 = test: Whole-cell NMR β-lactamase hydrolysis assay, DH5α + CTX-M-1; type: cell-based, E. coli; conditions: DH5α + CTX-M-1, 100 μM, 60 min
DH5α + TEM-116 = test: Whole-cell NMR β-lactamase hydrolysis assay, DH5α + TEM-116; type: cell-based, E. coli; conditions: DH5α + TEM-116, 100 μM, 90 min
E. coli strain DH5α = test: MIC, broth microdilution, E. coli DH5α; type: cell-based; conditions: for MIC value DH5α: E. coli DH5α without β-lactamase
Protocol: Analysis of the literature identified the amide functionality at C-7 of the cephem ring as central to PBP and β-lactamase activity,[44]−[51] and therefore structural changes at this position provided the initial focus of investigation. By use of cephalothin 7 (Table 1) as the starting point, analogues were prepared to explore bioisosteric replacement,[52],[53] functionalities present in early generation β-lactam antibiotics, and to probe steric and electronic tolerance.[54],[55] All compounds were synthesized according to the previously reported methods (Figure S1 in Supporting Information).[55],[56] Antibacterial activity was assessed by determining the minimal concentration required to inhibit bacterial growth, known as the minimal inhibitory concentration (MIC), against the E. coli strain DH5α ± expression of the ESBL TEM-116.[57] The susceptibility to β-lactamase mediated hydrolysis was assessed by determining the physiological efficiency (kcat/Km) of hydrolysis by recombinant AmpC protein.[3],[58],[59] […]
pNDM pSU18 containing the native coding sequence for NDM-1 under the Jiménez-control of the native promoter Castellanos et […]
pKPC pSU18 containing the native coding sequence for KPC-3 under the Brem et al., control of the native promoter 20166
Transformation of E. coli with plasmids
Plasmids were introduced via heat shock into chemically competent DH5a and via electroporation into E. coli CFT073 following published protocols.8 […]
The bacterial strains and plasmids used in this study are detailed in Supplementary Table 1.
E. coli was grown in Mueller-Hinton Broth (MHB) or Lennox Broth (LB) at 37 °C, with shaking (180 r.p.m.) overnight (16-18 h). […]
MIC assays were performed in 96-well thermo scientific Nuclon Delta Surface plates and MICs were determined in accordance with the broth microdilution protocol.7 E. coli grown to stationary-phase in MHB or LB were adjusted to OD600 nm of 0.05 in MHB and […]
determined as the lowest concentration of antibiotic that inhibited visible bacterial growth.
OD595 measurements were recorded on a BioRad 1Mark Microplate Reader. […]
subsequently incubated at 37 °C with shaking (180 r.p.m.) and bacterial viability determined […]
Each compound was incubated for 1 hour at room temperature in 100 mM NaPO4 (pH 7) ± 0.5 M NaOH. The wavelength at which the difference between un-hydrolysed and hydrolysed compound was the greatest was selected (typically 263 nm) and a compound concentration vs. absorbance standard curve was generated. […] Recombinant Amp-C in assay buffer was added immediately before incubatio n in the microplate reader at 37 °C. UV absorbance was measured every 20 s for 1 h on a BMG LABTECH SPECTROstarNano. Kinetic parameters were determined by half -life analysis. […]

recombinant DNA gyrase = target: T1, recombinant DNA gyrase (Escherichia coli, UniProt P0AES4+P0AES6); test: Recombinant DNA gyrase supercoiling assay ± CTX-M-15; type: biochemical, E. coli; conditions: ± CTX-M-15
T1 construct: purchased Inspiralis
T1 sequence (P0AES4 whole entry, one chain of several): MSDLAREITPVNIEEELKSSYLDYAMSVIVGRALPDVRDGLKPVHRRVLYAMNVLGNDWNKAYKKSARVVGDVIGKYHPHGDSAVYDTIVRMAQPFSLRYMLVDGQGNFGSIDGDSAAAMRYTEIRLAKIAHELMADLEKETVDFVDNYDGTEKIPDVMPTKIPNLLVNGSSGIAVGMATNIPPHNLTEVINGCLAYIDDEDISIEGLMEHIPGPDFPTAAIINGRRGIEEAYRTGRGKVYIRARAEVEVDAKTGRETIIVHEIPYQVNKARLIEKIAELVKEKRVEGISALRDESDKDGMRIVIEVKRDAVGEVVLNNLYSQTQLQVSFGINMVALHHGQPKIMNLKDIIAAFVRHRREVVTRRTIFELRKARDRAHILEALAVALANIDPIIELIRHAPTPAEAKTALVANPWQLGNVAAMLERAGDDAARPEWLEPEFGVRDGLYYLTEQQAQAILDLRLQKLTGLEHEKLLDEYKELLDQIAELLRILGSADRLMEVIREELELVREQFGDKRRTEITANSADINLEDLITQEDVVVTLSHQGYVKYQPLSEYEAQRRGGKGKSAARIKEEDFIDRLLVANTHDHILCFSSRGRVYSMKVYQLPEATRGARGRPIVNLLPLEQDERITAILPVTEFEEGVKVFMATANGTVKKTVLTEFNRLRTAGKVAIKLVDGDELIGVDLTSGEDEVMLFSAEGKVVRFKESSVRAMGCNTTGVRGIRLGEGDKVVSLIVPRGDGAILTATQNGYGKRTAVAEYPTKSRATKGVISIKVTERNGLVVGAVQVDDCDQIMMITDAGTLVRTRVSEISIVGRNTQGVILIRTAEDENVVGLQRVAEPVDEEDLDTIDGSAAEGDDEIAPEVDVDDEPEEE

CFT073 + pSU18 + CTX-M-1 = test: Whole-cell NMR β-lactamase hydrolysis assay, CFT073 + CTX-M-1; type: cell-based, E. coli; conditions: 100 μM compound at 1 h by whole-cell NMR assay
CFT073 + pSU18 (pEMP) = test: microbe, parasite or virus in culture; type: cell-based, E. coli; conditions: Escherichia coli, read-out: MIC value CFT073 + pSU18, empty plasmid, no β-lactamase
recombinant AmpC protein = target: T2, recombinant AmpC protein (Escherichia coli, UniProt P00811); type: biochemical
T2 construct: purchased Abcam ab104926
T2 sequence (P00811 20-377): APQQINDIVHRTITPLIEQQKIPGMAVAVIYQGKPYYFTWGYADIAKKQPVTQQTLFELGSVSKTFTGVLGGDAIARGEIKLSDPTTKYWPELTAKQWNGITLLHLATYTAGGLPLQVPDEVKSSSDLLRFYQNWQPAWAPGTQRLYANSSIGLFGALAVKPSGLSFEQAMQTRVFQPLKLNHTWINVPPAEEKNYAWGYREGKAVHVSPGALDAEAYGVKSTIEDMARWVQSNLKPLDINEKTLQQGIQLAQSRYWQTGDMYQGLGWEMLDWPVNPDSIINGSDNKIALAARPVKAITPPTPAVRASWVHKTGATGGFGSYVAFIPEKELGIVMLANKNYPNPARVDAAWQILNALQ

Structure (SMILES): CC(=O)OCC1=C(C(=O)O)N2C(=O)[C@@H](NC(=O)Cc3cccs3)[C@H]2SC1 [Ceph 7, cephalothin, reference compound]
- % hydrolysis by NMR –βla (DH5α cells –βla): 0%
- % hydrolysis by NMR +βla (DH5α expressing CTX-M-1; listed as cepaholothin 7): complete hydrolysis

Structure (SMILES): CC(=O)OCC1=C(C(=O)O)N2C(=O)[C@@H](NC(=O)Cc3ccc(Oc4ccccc4)cc3)[C@H]2SC1 [compound 17, (6R,7R)-3-(Acetoxymethyl)-8-oxo-7-(2-(4-phenoxyphenyl)acetamido)-5-thia-1-azabicyclo[4.2.0]oct-2-ene-2-carboxylic Acid]
- % hydrolysis by NMR +βla (DH5α + TEM-116): 54%
- % hydrolysis by NMR –βla (DH5α cells –βla): 0%
- MIC value DH5α (E. coli strain DH5α): no measurable MIC values

Structure (SMILES): CC(=O)OCC1=C(C(=O)O)N2C(=O)[C@@H](NC(=O)Cc3ccc(-c4ccccc4)cc3)[C@H]2SC1 [compound 16, (6R,7R)-7-(2-([1,1′-Biphenyl]-4-yl)acetamido)-3-(acetoxymethyl)-8-oxo-5-thia-1-azabicyclo[4.2.0]oct-2-ene-2-carboxylic Acid]
- % hydrolysis by NMR –βla (DH5α cells –βla): 0%
- % hydrolysis by NMR +βla (DH5α expressing CTX-M-1): 100%
- MIC value DH5α (E. coli strain DH5α): no measurable MIC values

Structure (SMILES): O=C(O)c1cn(C2CC2)c2cc(N3CCNCC3)c(F)cc2c1=O [Ciprofloxacin 31, ciprofloxacin, reference compound]
- effect of CTX-M-15 on DNA gyrase inhibitory activity (recombinant DNA gyrase): not affected by CTX-M-15

Structure (SMILES): CC(=O)OCC1=C(C(=O)O)N2C(=O)[C@@H](NC(=O)C3CCCCC3)[C@H]2SC1 [compound 25, (6R,7R)-3-(Acetoxymethyl)-7-(cyclohexanecarboxamido)-8-oxo-5-thia-1-azabicyclo[4.2.0]oct-2-ene-2-carboxylic Acid]
- % hydrolysis in CFT073 + pSU18 + CTX-M-1 (CFT073 + pSU18 + CTX-M-1): 0%

Structure (SMILES): CC(=O)OCC1=C(C(=O)O)N2C(=O)[C@@H](NC(=O)Cc3ccc(C)cc3)[C@H]2SC1 [compound 12, (6R,7R)-3-(Acetoxymethyl)-8-oxo-7-(2-(p-tolyl)acetamido)-5-thia-1-azabicyclo[4.2.0]oct-2-ene-2-carboxylic Acid]
- MIC (CFT073 + pSU18 (pEMP)): 100 µM

Structure (SMILES): CC(=O)OCC1=C(C(=O)O)N2C(=O)[C@@H](NC(=O)Cc3cccc(Oc4ccccc4)c3)[C@H]2SC1 [compound 19, (6R,7R)-3-(Acetoxymethyl)-8-oxo-7-(2-(3-phenoxyphenyl)acetamido)-5-thia-1-azabicyclo[4.2.0]oct-2-ene-2-carboxylic Acid]
- MIC value DH5α (E. coli strain DH5α): no measurable MIC values
- % hydrolysis in CFT073 + pSU18 + CTX-M-1 (CFT073 + pSU18 + CTX-M-1): 0%

Structure (SMILES): CC(=O)OCC1=C(C(=O)O)N2C(=O)[C@@H](NC(=O)Cc3ccccc3)[C@H]2SC1 [compound 11, (6R,7R)-3-(Acetoxymethyl)-8-oxo-7-(2-phenylacetamido)-5-thia-1-azabicyclo[4.2.0]oct-2-ene-2-carboxylic Acid]
- increase in MIC value against E. coli DH5α compared to cephalothin (E. coli strain DH5α): 4 fold

Structure (SMILES): CC(=O)OCC1=C(C(=O)O)N2C(=O)[C@@H](NC(=O)Cc3ccc(Br)cc3)[C@H]2SC1 [compound 15, (6R,7R)-3-(Acetoxymethyl)-7-(2-(4-bromophenyl)acetamido)-8-oxo-5-thia-1-azabicyclo[4.2.0]oct-2-ene-2-carboxylic Acid]
- MIC (CFT073 + pSU18 (pEMP)): 100 µM

Structure (SMILES): CC(=O)OCC1=C(C(=O)O)N2C(=O)[C@@H](NC(=O)[C@H](C)c3ccccc3)[C@H]2SC1 [compound 10, (6R,7R)-3-(Acetoxymethyl)-8-oxo-7-((R)-2-phenylpropanamido)-5-thia-1-azabicyclo[4.2.0]oct-2-ene-2-carboxylic Acid]
- % hydrolysis in CFT073 + pSU18 + CTX-M-1 (CFT073 + pSU18 + CTX-M-1): 0%

Structure (SMILES): CCCCCC(=O)N[C@@H]1C(=O)N2C(C(=O)O)=C(COC(C)=O)CS[C@H]12 [compound 28, (6R,7R)-3-(Acetoxymethyl)-7-hexanamido-8-oxo-5-thia-1-azabicyclo[4.2.0]oct-2-ene-2-carboxylic Acid]
- MIC (CFT073 + pSU18 (pEMP)): 100 µM

Structure (SMILES): CC(=O)OCC1=C(C(=O)O)N2C(=O)[C@@H](NC(=O)Cc3ccc(F)cc3)[C@H]2SC1 [compound 13, (6R,7R)-3-(Acetoxymethyl)-7-(2-(4-fluorophenyl)acetamido)-8-oxo-5-thia-1-azabicyclo[4.2.0]oct-2-ene-2-carboxylic Acid]
- MIC (CFT073 + pSU18 (pEMP)): 100 µM

Structure (SMILES): CC(=O)OCC1=C(C(=O)O)N2C(=O)[C@@H](NC(=O)Cc3ccc(Cl)cc3)[C@H]2SC1 [compound 14, (6R,7R)-3-(Acetoxymethyl)-7-(2-(4-chlorophenyl)acetamido)-8-oxo-5-thia-1-azabicyclo[4.2.0]oct-2-ene-2-carboxylic Acid]
- MIC (CFT073 + pSU18 (pEMP)): 100 µM

Structure (SMILES): CC(=O)OCC1=C(C(=O)O)N2C(=O)[C@@H](NC(=O)Cc3cccc(C)c3)[C@H]2SC1 [compound 18, (6R,7R)-3-(acetoxymethyl)-8-oxo-7-(2-(m-tolyl)acetamido)-5-thia-1-azabicyclo[4.2.0]oct-2-ene-2-carboxylic Acid]
- increase in kcat/Km compared to cephalothin (recombinant AmpC protein): 3 fold
- increase in kcat/Km compared to para-methyl 12 (recombinant AmpC protein): 5 fold
